Where two headings read alike, the source gives them in different places.
Columns and labels:
GPR35 [1] = molecular target: T1, GPR35 (Homo sapiens (Human), UniProt Q9HC97); details: reported in US20130316985; read-out: EC50 (weak agonist activity at GPR35); cited from earlier work
Target sequence in this assay (Q9HC97 whole entry, species assumed): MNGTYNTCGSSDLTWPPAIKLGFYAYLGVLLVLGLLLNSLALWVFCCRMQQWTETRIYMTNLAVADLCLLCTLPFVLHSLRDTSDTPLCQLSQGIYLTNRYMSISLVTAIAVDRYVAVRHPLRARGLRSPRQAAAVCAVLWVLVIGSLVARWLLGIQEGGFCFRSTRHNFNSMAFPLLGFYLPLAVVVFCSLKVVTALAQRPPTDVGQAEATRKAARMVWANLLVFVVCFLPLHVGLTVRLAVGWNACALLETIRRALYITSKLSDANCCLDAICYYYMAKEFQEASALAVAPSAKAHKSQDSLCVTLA

GPR35 [2] = molecular target: T1, GPR35; assay: selectivity for GPR35 / off-target effects
Target sequence in this assay (Q9HC97 whole entry, species assumed): as above

[3] = system: indomethacin ileitis and barrier permeability; assay: indomethacin ileitis and barrier permeability; type: in vivo; details: preclinical species
[4] = system: major human CYPs, including CYP3A4; assay: drug interaction potential for major human CYPs; type: in vitro ADME
Human GPR35a isoform = Human GPR35a isoform (Homo sapiens (Human), UniProt Q9HC97); assay: Human GPR35a isoform binding (radioligand, HEK293f membranes); details: HEKf cell membranes overexpressing GPR35a isoform; read-out: Human GPR35 Ki
Experimental: Overexpression of Human GPR35a Baculovirus in HEK293f cells at a cell density of 2.5×10^6 cells/mL and a multiplicity of infection of 2.5 over 24 h in Pro293 (Lonza)+5% FBS, 1% Glutamax and 0.4% Pen/Strep. Cells harvested and centrifuged at 2500 RPM for 10 mins at 4° C. The supernatant was then poured off and the pellet stored at −80° C. The pellet was defrosted and re-suspended in 15 mL of homogenising buffer (20 mM HEPES, 10 mM EDTA, pH 7.4). Then homogenised in mechanical homogeniser (VMR) for 10 seconds. The membrane was centrifuged in centrifuge tubes at 40,000 g for 15 mins at 4° C. The supernatant was poured away and re-suspended in 15 mL of homogenising buffer. Homogenised for 20 seconds. The membrane was centrifuged at 40,000 g for 45 mins at 4° C. The membrane was re-suspended in 3 mL of storage buffer (20 mM HEPES, 0.1 mM EDTA, pH 7.4) mixing well. The resulting membranes were then stored at −80°. GPR35 cell membrane homogenates were re-suspended in the binding buffer (50 mM TRIS+10 mM MgCl2 pH 7.4) to a final assay concentration of 5 ug/well. Test compounds were diluted in dimethylsulphoxide (DMSO (Sigma Aldrich, UK)), to form a 10 point ½ log concentration curve. Test compounds were added per plate, followed by 7 nM 3H-27966. 0.1 uM FAC Lodoxamide was added in order to allow non-specific binding to be calculated. Finally, membrane was added to each well on the plate. After 60 min incubation at room temperature, membranes were filtered onto a unifilter, 96-well white microplate with bonded GF/B filter, pre-soaked in ddH20, with a TomTec cell harvester, and washed 5 times with distilled water. Plates were dried prior to 50 ul/well scintillant added, sealed and radioactivity measured using a MicroBeta analyser. IC50 values were derived from the inhibition curve and affinity constant (Ki) values were calculated using the Cheng-Prussoff equation, where; pKi=−log 10 Ki.
(§1) • Ki values derived from concentration response analysis in HEKf cell membranes overexpressing GPR35a isoform. EC50 values derived from concentration response analysis in HT-29 cell line endogenously expressing human GPR35.

LPS challenge = assay: acute rat and mouse LPS challenge; type: in vivo
GPR35 [5] = molecular target: T1, GPR35; assay: Label-free DMR functional assay in HT-29 cells; type: cell-based; details: for EC50: HT-29 cell line endogenously expressing human GPR35, DMR normalised to Lodoxamide
Experimental: HT-29 cells (ATCC HTB-38) kept in continuous culture in McCoys (Thermo 16600082) supplemented with 10% FBS. Day prior to assay, cells harvested with TrypLE (Gibco12604-013), and plated at 20 k/well in culture media in a total volume of 50 ul in Corning EPIC 384 well plates (5040) overnight 37° C. 5% CO2. On the day of assay, cell media was removed and replaced with assay buffer (HBSS+20 mM HEPES pH7.4) and reincubated for 1 h. Compounds were prepared in 100% DMSO in ECHO LDV 384 source plates. Cell plates were read on an EPIC plate reader at room temperature for 15 mins, read paused, and cell plate added to LabCyte ECHO 550 for addition of 50 nl per well compound by acoustic transfer. Plates were immediately placed back into the EPIC reader, read unpaused and Dynamic Mass Redistribution measured for 60 minutes. Raw data was analysed by EPIC Analyser software and max peak taken per concentration to enable EC50 determination. All raw DMR data was normalised to Lodoxamide and buffer corrected.
as §1
Target sequence in this assay (Q9HC97 whole entry): as the sequence (Q9HC97 whole entry, species assumed) above

TNBS visceral pain = assay: TNBS mouse visceral pain model; type: in vivo
[6] = system: PGE2-induced fluid secretion; assay: PGE2-induced fluid secretion; type: in vivo; details: preclinical species
GPR35 [7] = molecular target: T1, GPR35; details: human vs rat GPR35; cited from earlier work
Target sequence in this assay (Q9HC97 whole entry): as the sequence (Q9HC97 whole entry, species assumed) above

Human GPR35a isoform, sequence (Q9HC97 whole entry, canonical isoform): as the sequence (Q9HC97 whole entry, species assumed) above

## Nc1ccc(O)c(C(=O)O)c1 [5-aminosalicylic acid]
GPR35 [1]
  EC50: ~3000 nM

## O=C(NCc1ccccc1)c1ccc(-c2cc(Nc3c(O)c(=O)c3=O)cc(-c3nn[nH]n3)c2)cc1 [Example 5, N-benzyl-3′-((2-hydroxy-3,4-dioxocyclobut-1-en-1-yl)amino)-5′-(1H-tetrazol-5-yl)-[1,1′-biphenyl]-4-carboxamide]
GPR35 [2]
  off-target effects: no off-target effects have been observed
  selectivity for GPR35: strong selectivity
[3]
  pharmacology in indomethacin ileitis and barrier permeability: showed pharmacology
[4]
  drug interaction potential for the major human CYPs: very low drug interaction potential
Human GPR35a isoform
  Ki: 0.08 nM
LPS challenge
  pharmacology in acute rat and mouse LPS challenge: showed pharmacology
GPR35 [5]
  EC50: 0.52 nM
GPR35 [5]; relative to Cromolyn
  functional potency for GPR35 higher than Cromolyn: about 500 times
TNBS visceral pain
  pharmacology in TNBS mouse visceral pain model: showed pharmacology
[6]
  pharmacology in PGE2-induced fluid secretion: showed pharmacology

## O=c1c(O)c(Nc2cc(-c3nn[nH]n3)cc(C3CCCCC3)c2)c1=O [Example 28, 3-((3-cyclohexyl-5-(1H-tetrazol-5-yl)phenyl)amino)-4-hydroxycyclobut-3-ene-1,2-dione]
Human GPR35a isoform
  Ki: 12.5 nM
GPR35 [5]
  EC50: 6.65 nM

## O=c1c(O)c(Nc2cc(-c3ccnnc3)cc(-c3nn[nH]n3)c2)c1=O [Example 29, 3-hydroxy-4-((3-(pyridazin-4-yl)-5-(1H-tetrazol-5-yl)phenyl)amino)cyclobut-3-ene-1,2-dione]
Human GPR35a isoform
  Ki: 0.74 nM
GPR35 [5]
  EC50: 1.05 nM

## CN(C)C(=O)c1ccc(-c2cc(Nc3c(O)c(=O)c3=O)cc(-c3nn[nH]n3)c2)cc1 [Example 30, 3′-((2-hydroxy-3,4-dioxocyclobut-1-en-1-yl)amino)-N,N-dimethyl-5′-(1H-tetrazol-5-yl)-[1,1′-biphenyl]-4-carboxamide]
Human GPR35a isoform
  Ki: 5.99 nM
GPR35 [5]
  EC50: 2.64 nM

## NC(=O)c1ccc(CNC(=O)c2ccc(-c3cc(Nc4c(O)c(=O)c4=O)cc(-c4nn[nH]n4)c3)cc2)cc1 [Example 31, N-(4-carbamoylbenzyl)-3′-((2-hydroxy-3,4-dioxocyclobut-1-en-1-yl)amino)-5′-(1H-tetrazol-5-yl)-[1,1′-biphenyl]-4-carboxamide]
Human GPR35a isoform
  Ki: 1.61 nM
GPR35 [5]
  EC50: 11.3 nM

## O=C(O)c1cc(=O)c2ccccc2[nH]1 [kynurenic acid]
GPR35 [7]
  potency at the human receptor lower compared to the rat ortholog: at least 100 fold

## O=C(O)c1cc(/N=N/c2ccc(S(=O)(=O)Nc3ccccn3)cc2)ccc1O [sulfasalazine]
GPR35 [1]
  EC50: ~3000 nM

Reference: patent US20240254093A1, “GPR35 Agonist Compounds” (Heptares Therapeutics Limited, priority 2021, published 2024)
